{"source": "patent US20100240682A1", "about": "“PHOPHYLACTIC OR THERAPEUTIC AGENT FOR INFLAMATORY DISEASE COMPRISING THYMIDINE PHOSPHORYLASE INHIBITOR AS ACTIVE INGREDIENT” (TAIHO PHARMACEUTICAL CO., LTD., priority 2007, published 2010)", "key": {"[1]": {"system": "concanavalin-A-induced hepatitis model mice", "assay": "Concanavalin-A-induced hepatitis model, serum AST and ALT", "type": "in vivo, mouse", "conditions": "TPI 100 mg/kg oral, 30 min before concanavalin A i.v., 24 h after", "procedure": "TPI (100 mg/kg) was orally single-administered to […] in which hepatitis had been induced by concanavalin A (i.e., a hepatitis model), and the inhibitory effect of TPI on hepatitis was evaluated. Specifically, 6-week-old female C57BL/6NCrlCrlj mice (Charles River Laboratories Japan Inc.) were employed. To the TPI administration group, TPI (100 mg/kg) was orally administered, and after 30 minutes 2 mg/mL concanavalin A (150 μL/animal) was intravenously administered through the tail vein. To the control group, only a vehicle was orally administered instead of TPI. […] The serum ALT level (IU/L) and AST level (IU/L) were determined as index for liver disorders."}, "[2]": {"system": "rats having hydrochloric-acid-induced cystitis", "assay": "Hydrochloric-acid-induced rat interstitial cystitis model, histological changes of the bladder (HE staining)", "type": "in vivo", "procedure": "To rats having hydrochloric-acid-induced cystitis serving as an interstitial cystitis model, TPI (50 or 500 mg/kg) was orally administered continuously for seven days, and the effect of TPI on pathological histological improvement of the bladder tissue was evaluated. Specifically, 10-week-old SD rats were divided into groups (n=6) on the basis of body weight. To each of the rats of a control group and TPI administration groups, 0.4N HCl (0.2 mL) was intravesically administered once to the bladder under pentobarbital anesthesia (50 mg/kg, i.p.), to thereby induce a cystitis model. To a Sham group, saline (0.2 mL) was intravesically administered. From the day following the induction of cystitis model, distilled water for injection (5 mL/kg) was administered to the Sham and control groups, while distilled water for injection (5 mL/kg) containing TPI (50 or 500 mg/kg) was administered to the TPI administration groups. In each case, the liquid was orally administered continuously once a day for seven days. On the day following the final administration day, the bladder was removed from each of the rats under ether anesthesia and washed with saline. Subsequently, the washed bladder was fixed with 20% buffered formalin and 10% buffered formalin, followed by HE staining. Histological changes of the bladder were observed. […]"}, "[3]": {"system": "IL-6 production in human monocytes cell line U937", "assay": "IL-6 production by PMA/thymidine-stimulated U937 cells", "type": "cell-based", "conditions": "U937 after 10 ng/mL PMA and 10 μmol/L thymidine; 48 h after drug addition; vs control group", "procedure": "Human monocytes cell line U937 were cultured using a 10% FBS RPMI 1640 medium (SIGMA-ALDRICH) at 37° C. under 5% CO2. Using a 24-well plate, U937 cells (1×10^5) were cultured for 24 hours in a medium containing 10 ng/mL phorbol-12-myristate-13-acetate (inflammatory substance, hereinafter abbreviated to as PMA) and 10 μmol/L thymidine in order for induction of inflammatory reaction. Twenty-four hours later, the medium was changed to fresh medium. To the drug administration group, TUPI or TPI was added. Forty-eight hours after the addition, the IL-6 level of each culture supernatant was determined by means of BioPlex (Bio-Rad Laboratories, Inc.)."}, "[4]": {"system": "rats having hydrochloric-acid-induced cystitis", "assay": "Hydrochloric-acid-induced cystitis model rat, bladder functions by cystometry", "type": "in vivo", "conditions": "TPI 5, 50 or 100 mg/kg orally once a day for seven days; vs control group", "procedure": "To rats having hydrochloric-acid-induced cystitis serving as a cystitis model, 5-chloro-6-(2-iminopyrrolidin-1-yl)methyl-2,4(1H,3H)-pyrimidinedione hydrochloride (hereinafter abbreviated as “TPI”) (5, 50, or 100 mg/kg) was orally administered continuously for seven days, and the effect of TPI on bladder functions was evaluated. Specifically, 10-week-old SD rats were divided into groups (n=6) on the basis of body weight. To each of the rats of the control group and TPI administration groups, 0.4N HCl (0.2 mL) was intravesically administered once to the bladder under pentobarbital anesthesia (50 mg/kg, i.p.), to thereby induce a cystitis model. To a Sham group, saline (0.2 mL) was intravesically administered. From the day following the induction of cystitis model, distilled water for injection (5 mL/kg) was administered to the Sham and control groups, while distilled water for injection (5 mL/kg) containing TPI (5, 50, or 100 mg/kg) was administered to the TPI administration groups. In each case, the liquid was administered by forced oral administration once a day continuously for seven days. On the day following the final administration day, bladder functions (urination intervals and single urination output) of the rats of each group were evaluated through cystometry under anesthesia in accordance with a method described in BJU Int. 2007 October; 100(4): 935-9."}, "collagen arthritis mice": {"system": "collagen arthritis mice", "assay": "Collagen arthritis model mouse, arthritis score", "type": "in vivo", "conditions": "500 mg/kg orally once a day; 11 to 14 days after second immunization", "procedure": "TPI (250 or 500 mg/kg) was orally administered to collagen arthritis mice (i.e., rheumatic model) continuously for 14 days, and the effect of TPI on edema of the limbs of each mouse was evaluated. Arthritis was induced in […] mice by type II collagen induction, and the mice were employed as a rheumatoid arthritis model. Specifically, type II collagen derived from bovine joint (K42, product of Collagen Gijyutsu Kensyukai) (200 μg) was suspended in Freund's complete adjuvant (DIFCO) (100 μL), and on day 1, the suspension was intradermally administered to the back of 8-week-old mice (DBA/1JN mice, Charles River Laboratories Japan Inc.). On day 21, type II collagen derived from bovine joint (K42) (200 μg) suspended in Freund's complete adjuvant (100 μL) was intradermally administered to the tail portion of each mice, to thereby induce an arthritis model. To the TPI administration groups, TPI (250 or 500 mg/kg/day) was orally administered continuously once a day during a period from day 21 to day 40. To the control, a solvent (0.5% aqueous HPMC) was administered instead of TPI according to the same administration schedule as employed in the TPI administration groups. […] The arthritis condition was evaluated on day 42; i.e., the day following the final administration day. […]"}, "[5]": {"system": "rats in which ulcer had been induced by hydrochloric acid", "assay": "Hydrochloric-acid-induced acute gastritis model rat, gastric mucosal damage (lesion length)", "type": "in vivo", "conditions": "control 120.4±8.5 mm", "procedure": "TPI (100 or 200 mg/kg) was orally single-administered to rats in which ulcer had been induced by hydrochloric acid (i.e., an acute gastritis model), and the preventive effect of TPI on mucosal damage was evaluated. Specifically, 7-week-old female SD rats (Charles River Laboratories Japan Inc.) were fasted for about 18 hours. To the TPI administration groups, TPI (100 or 200 mg/kg) was orally administered, and after 30 minutes 0.6N HCl (5 mL/kg) was orally administered. To the control group, only 0.6N HCl (5 mL/kg) was orally administered. One hour after administration of hydrochloric acid, rats were euthanized through, and the stomach was removed from each rat. The tissue thereof was fixed with 1% formaline buffer, and the stomach was cut through the greater curvature. The longer diameter (mm) of a lesion was measured by means of an electronic caliper, and the total of the diameters was employed as an index for evaluating gastric mucosal damage."}}}
{"compound": "Cl.N=C1CCCN1Cc1[nH]c(=O)[nH]c(=O)c1Cl", "note": "[TPI, 5-chloro-6-(2-iminopyrrolidin-1-yl)methyl-2,4(1H,3H)-pyrimidinedione hydrochloride]", "values": [{"measurement": "serum AST level", "setting": "[1]; control 4,506±864", "result": "1,540±477 IU/L"}, {"measurement": "serum ALT level", "setting": "[1]; control 6,130±800", "result": "2,538±755 IU/L"}, {"measurement": "Entire bladder: Thickening/proliferation of transitional epithelium, number of samples", "setting": "[2]; TAS-111 (50), grade +", "result": 1}, {"measurement": "Lamina propria: Edema, number of samples", "setting": "[2]; TAS-111 (50), grade +", "result": 0}, {"measurement": "Lamina propria: Infiltration of mast cells/eosinocytes, number of samples", "setting": "[2]; TAS-111 (50), grade +", "result": 1}, {"measurement": "Tunica muscularis: Edema, number of samples", "setting": "[2]; TAS-111 (50), grade +", "result": 2}, {"measurement": "Tunica muscularis: Infiltration of mast cells/eosinocytes, number of samples", "setting": "[2]; TAS-111 (50), grade +", "result": 2}, {"measurement": "Entire bladder: Thickening/proliferation of transitional epithelium, number of samples", "setting": "[2]; TAS-111 (50), grade ++", "result": 2}, {"measurement": "Lamina propria: Edema, number of samples", "setting": "[2]; TAS-111 (50), grade ++", "result": 2}, {"measurement": "Lamina propria: Infiltration of mast cells/eosinocytes, number of samples", "setting": "[2]; TAS-111 (50), grade ++", "result": 2}, {"measurement": "Tunica muscularis: Edema, number of samples", "setting": "[2]; TAS-111 (50), grade ++", "result": 0}, {"measurement": "Tunica muscularis: Infiltration of mast cells/eosinocytes, number of samples", "setting": "[2]; TAS-111 (50), grade ++", "result": 0}, {"measurement": "Entire bladder: Thickening/proliferation of transitional epithelium, number of samples", "setting": "[2]; TAS-111 (50), grade +++", "result": 0}, {"measurement": "Lamina propria: Edema, number of samples", "setting": "[2]; TAS-111 (50), grade +++", "result": 0}, {"measurement": "Lamina propria: Infiltration of mast cells/eosinocytes, number of samples", "setting": "[2]; TAS-111 (50), grade +++", "result": 0}, {"measurement": "Tunica muscularis: Edema, number of samples", "setting": "[2]; TAS-111 (50), grade +++", "result": 0}, {"measurement": "Tunica muscularis: Infiltration of mast cells/eosinocytes, number of samples", "setting": "[2]; TAS-111 (50), grade +++", "result": 0}, {"measurement": "Entire bladder: Thickening/proliferation of transitional epithelium, number of samples", "setting": "[2]; TAS-111 (500), grade +", "result": 1}, {"measurement": "Lamina propria: Edema, number of samples", "setting": "[2]; TAS-111 (500), grade +", "result": 0}, {"measurement": "Lamina propria: Infiltration of mast cells/eosinocytes, number of samples", "setting": "[2]; TAS-111 (500), grade +", "result": 2}, {"measurement": "Tunica muscularis: Edema, number of samples", "setting": "[2]; TAS-111 (500), grade +", "result": 0}, {"measurement": "Tunica muscularis: Infiltration of mast cells/eosinocytes, number of samples", "setting": "[2]; TAS-111 (500), grade +", "result": 0}, {"measurement": "Entire bladder: Thickening/proliferation of transitional epithelium, number of samples", "setting": "[2]; TAS-111 (500), grade ++", "result": 0}, {"measurement": "Lamina propria: Edema, number of samples", "setting": "[2]; TAS-111 (500), grade ++", "result": 1}, {"measurement": "Lamina propria: Infiltration of mast cells/eosinocytes, number of samples", "setting": "[2]; TAS-111 (500), grade ++", "result": 0}, {"measurement": "Tunica muscularis: Edema, number of samples", "setting": "[2]; TAS-111 (500), grade ++", "result": 0}, {"measurement": "Tunica muscularis: Infiltration of mast cells/eosinocytes, number of samples", "setting": "[2]; TAS-111 (500), grade ++", "result": 0}, {"measurement": "Entire bladder: Thickening/proliferation of transitional epithelium, number of samples", "setting": "[2]; TAS-111 (500), grade +++", "result": 0}, {"measurement": "Lamina propria: Edema, number of samples", "setting": "[2]; TAS-111 (500), grade +++", "result": 0}, {"measurement": "Lamina propria: Infiltration of mast cells/eosinocytes, number of samples", "setting": "[2]; TAS-111 (500), grade +++", "result": 0}, {"measurement": "Tunica muscularis: Edema, number of samples", "setting": "[2]; TAS-111 (500), grade +++", "result": 0}, {"measurement": "Tunica muscularis: Infiltration of mast cells/eosinocytes, number of samples", "setting": "[2]; TAS-111 (500), grade +++", "result": 0}, {"measurement": "IL-6 level of culture supernatant", "setting": "[3]", "result": "more significant suppression"}, {"measurement": "bladder functions (urination interval, single urination output, effective vesical capacity, residual urine)", "setting": "[4]", "result": "improved in response to the administration amount"}, {"measurement": "arthritis scores", "setting": "collagen arthritis mice", "result": "significant suppression"}, {"measurement": "gastric mucosal damage (total of longer diameters of lesions)", "setting": "[5]; TPI 100 mg/kg oral single dose 30 min before 0.6N HCl, significantly reduced", "result": "63.0±14.3", "unit": "mm"}, {"measurement": "gastric mucosal damage (total of longer diameters of lesions)", "setting": "[5]; TPI 200 mg/kg oral single dose 30 min before 0.6N HCl", "result": "76.1±18.3", "unit": "mm"}]}
{"compound": "Nc1[nH]c(=O)[nH]c(=O)c1Cl", "note": "[TUPI, 5-chloro-6-aminouracil, reference compound]", "values": [{"measurement": "IL-6 level of culture supernatant", "setting": "[3]", "result": "more significant suppression"}]}
